Assay results as given in the CheMixHub ionic liquid set.

Test: xn = mol fraction of the nth substance listed

N[C@@H](Cc1c[nH]cn1)C(=O)O + CCCCCCCCCCCC[N+](C)(C)C.[Br-] + O
viscosity [mPa·s], 101 kPa
Settings	293.15 K	298.15 K	303.15 K	308.15 K	313.15 K
x1 = 0.0001801, x2 = 0.0001083	1.03	0.904	0.816	0.738	0.668
x1 = 0.0001801, x2 = 0.0001624	1.033	0.908	0.816	0.741	0.669
x1 = 0.0001801, x2 = 0.0002165	1.035	0.909	0.821	0.745	0.67
x1 = 0.0001801, x2 = 0.0002706	1.038	0.918	0.823	0.748	0.672
x1 = 0.0001801, x2 = 0.0003247	1.043	0.925	0.827	0.751	0.674
x1 = 0.0001801, x2 = 0.0003788	1.048	0.927	0.839	0.753	0.676
x1 = 0.0001801, x2 = 0.0004329	1.056	0.931	0.843	0.756	0.68
x1 = 0.0001801, x2 = 0.000487	1.06	0.935	0.849	0.758	0.685
x1 = 0.0001801, x2 = 0.000541	1.062	0.935	0.851	0.76	0.689
x1 = 0.0001802, x2 = 5.413e-05	1.027	0.901	0.815	0.736	0.667
x1 = 0.0008997, x2 = 0.000544	1.041	0.906	0.823	0.737	0.651
x1 = 0.0008998, x2 = 0.0003809	1.032	0.891	0.808	0.728	0.646
x1 = 0.0008998, x2 = 0.0004352	1.035	0.894	0.812	0.732	0.647
x1 = 0.0008998, x2 = 0.0004896	1.038	0.9	0.818	0.734	0.649
x1 = 0.0008999, x2 = 0.0002721	1.029	0.885	0.803	0.724	0.644
x1 = 0.0008999, x2 = 0.0003265	1.03	0.888	0.806	0.727	0.645
x1 = 0.0009, x2 = 0.0001633	1.025	0.879	0.8	0.722	0.641
x1 = 0.0009, x2 = 0.0002177	1.027	0.881	0.802	0.722	0.643
x1 = 0.0009001, x2 = 5.443e-05	1.02	0.874	0.796	0.721	0.64
x1 = 0.0009001, x2 = 0.0001089	1.022	0.876	0.799	0.721	0.64
x1 = 0.001798, x2 = 0.0001644	1.065	0.915	0.85	0.756	0.685
x1 = 0.001798, x2 = 0.0002191	1.067	0.916	0.854	0.759	0.688
x1 = 0.001798, x2 = 0.0002739	1.068	0.919	0.858	0.76	0.691
x1 = 0.001798, x2 = 0.0003287	1.07	0.92	0.862	0.764	0.693
x1 = 0.001798, x2 = 0.0003835	1.072	0.923	0.867	0.771	0.696
x1 = 0.001798, x2 = 0.0004382	1.079	0.927	0.87	0.776	0.701
x1 = 0.001798, x2 = 0.000493	1.083	0.931	0.876	0.781	0.706
x1 = 0.001798, x2 = 0.0005477	1.089	0.939	0.881	0.786	0.709
x1 = 0.001799, x2 = 5.48e-05	1.061	0.908	0.842	0.751	0.68
x1 = 0.001799, x2 = 0.0001096	1.064	0.912	0.846	0.755	0.683

CCO + CC[n+]1ccn(C)c1.N#C[S-]
101 kPa, x2 = 0
Settings	viscosity [mPa·s]
293.15 K	1.18
303.15 K	0.98

Cc1ncc(CO)c(CO)c1O.Cl + CCCC[n+]1ccn(C)c1.[Br-] + O
viscosity [mPa·s], 100 kPa
Settings	x1 = 0.0002684, x2 = 0	x1 = 0.0005421, x2 = 0	x1 = 0.0008084, x2 = 0	x1 = 0.001085, x2 = 0	x1 = 0.001353, x2 = 0	x1 = 0.001621, x2 = 0
293.15 K	1.007	1.012	1.017	1.022	1.027	1.032
298.15 K	0.895	0.9	0.905	0.91	0.915	0.921
303.15 K	0.801	0.806	0.811	0.816	0.821	0.826
308.15 K	0.722	0.727	0.732	0.737	0.741	0.747
313.15 K	0.657	0.662	0.667	0.671	0.676	0.681
